We go through three compounds from PMC6351562, “Structure, function, and inhibition of drug reactivating human gut microbial β-glucuronidases” (Scientific Reports, 2019).

Holding throughout (type): biochemical
Test [1] concerns the target T1, Lactobacillus rhamnosus GUS (LrGUS) (Lacticaseibacillus rhamnosus, UniProt A0A2A5L2J1).
T1 sequence (A0A2A5L2J1 1-603): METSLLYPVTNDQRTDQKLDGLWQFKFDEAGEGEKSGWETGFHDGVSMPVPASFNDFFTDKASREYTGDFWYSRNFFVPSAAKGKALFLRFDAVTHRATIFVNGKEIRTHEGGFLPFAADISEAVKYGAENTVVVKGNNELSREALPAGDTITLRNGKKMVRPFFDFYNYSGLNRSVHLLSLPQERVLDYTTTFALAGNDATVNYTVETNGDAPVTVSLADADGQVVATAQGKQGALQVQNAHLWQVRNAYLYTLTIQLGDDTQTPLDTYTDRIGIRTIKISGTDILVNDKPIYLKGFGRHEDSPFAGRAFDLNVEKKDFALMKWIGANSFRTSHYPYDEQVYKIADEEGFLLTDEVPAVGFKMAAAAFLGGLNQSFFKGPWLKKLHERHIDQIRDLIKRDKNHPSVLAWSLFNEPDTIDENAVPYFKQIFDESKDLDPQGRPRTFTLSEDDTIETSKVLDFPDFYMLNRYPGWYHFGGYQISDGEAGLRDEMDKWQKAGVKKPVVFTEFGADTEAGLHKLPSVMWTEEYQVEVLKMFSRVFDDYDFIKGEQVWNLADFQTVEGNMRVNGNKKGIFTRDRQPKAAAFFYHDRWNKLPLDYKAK
The experiment in a line: In vitro inhibition assay (pNPG hydrolysis).

Test [2] deals with T2, Bacteroides dorei GUS (BdGUS) (Phocaeicola dorei, UniProt I9FNR0).
T2 sequence (I9FNR0 21-875): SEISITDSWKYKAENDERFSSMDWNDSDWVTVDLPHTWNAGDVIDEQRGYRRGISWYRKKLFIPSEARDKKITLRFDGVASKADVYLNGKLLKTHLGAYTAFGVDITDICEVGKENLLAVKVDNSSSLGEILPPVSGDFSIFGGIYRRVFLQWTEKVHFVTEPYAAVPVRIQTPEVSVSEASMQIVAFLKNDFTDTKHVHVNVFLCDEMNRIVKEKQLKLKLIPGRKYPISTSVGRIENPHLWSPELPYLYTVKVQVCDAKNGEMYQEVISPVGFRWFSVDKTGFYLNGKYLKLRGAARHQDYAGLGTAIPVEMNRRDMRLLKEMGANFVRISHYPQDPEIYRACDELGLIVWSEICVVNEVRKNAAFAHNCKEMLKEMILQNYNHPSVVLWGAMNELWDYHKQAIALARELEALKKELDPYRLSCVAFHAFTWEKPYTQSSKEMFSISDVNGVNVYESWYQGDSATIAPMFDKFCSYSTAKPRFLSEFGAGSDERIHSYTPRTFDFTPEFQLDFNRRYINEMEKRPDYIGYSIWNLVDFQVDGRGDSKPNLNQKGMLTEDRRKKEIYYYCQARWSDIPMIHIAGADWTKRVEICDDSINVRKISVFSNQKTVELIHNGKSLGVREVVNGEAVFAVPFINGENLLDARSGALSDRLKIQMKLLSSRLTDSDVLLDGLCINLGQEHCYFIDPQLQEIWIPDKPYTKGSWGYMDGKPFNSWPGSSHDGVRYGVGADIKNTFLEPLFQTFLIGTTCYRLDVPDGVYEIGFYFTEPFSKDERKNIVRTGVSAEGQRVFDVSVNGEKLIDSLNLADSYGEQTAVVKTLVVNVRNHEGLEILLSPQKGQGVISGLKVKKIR
The experiment in a line: In vitro inhibition assay (pNPG hydrolysis). The note with it: for IC50: pNPG 900 µM.

The target of test [3] is T3, Faecalibacterium prausnitzii GUS (FpGUS) (Faecalibacterium duncaniae, UniProt C7H4D2).
T3 sequence (C7H4D2 1-608): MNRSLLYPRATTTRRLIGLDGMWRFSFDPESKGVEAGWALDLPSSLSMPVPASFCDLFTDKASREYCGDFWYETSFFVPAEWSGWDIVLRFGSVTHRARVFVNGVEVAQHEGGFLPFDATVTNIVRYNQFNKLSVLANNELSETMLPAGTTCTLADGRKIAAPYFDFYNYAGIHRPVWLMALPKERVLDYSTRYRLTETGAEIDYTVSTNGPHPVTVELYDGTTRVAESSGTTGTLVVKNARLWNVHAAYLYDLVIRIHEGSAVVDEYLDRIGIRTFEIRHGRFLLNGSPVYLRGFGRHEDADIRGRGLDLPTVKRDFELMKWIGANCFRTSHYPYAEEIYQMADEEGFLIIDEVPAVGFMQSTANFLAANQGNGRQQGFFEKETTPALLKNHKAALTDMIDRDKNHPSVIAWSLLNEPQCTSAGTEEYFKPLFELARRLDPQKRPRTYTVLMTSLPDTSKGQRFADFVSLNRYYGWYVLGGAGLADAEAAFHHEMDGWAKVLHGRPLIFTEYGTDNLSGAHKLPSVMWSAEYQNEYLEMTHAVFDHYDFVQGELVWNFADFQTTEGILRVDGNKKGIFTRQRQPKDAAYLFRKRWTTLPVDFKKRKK
Briefly: In vitro inhibition assay (pNPG hydrolysis). The note with it: for IC50: pNPG 900 µM.

Test [4] has as its target Bacteroides fragilis GUS (BfGUS) (Bacteroides fragilis, UniProt Q5LIC7). Briefly: In vitro inhibition assay (pNPG hydrolysis).
Test [5] has as its target T4, Ruminococcus gnavus GUS (RgGUS) (Mediterraneibacter gnavus, UniProt A0A2N5PVZ8).
T4 sequence (A0A2N5PVZ8 1-603): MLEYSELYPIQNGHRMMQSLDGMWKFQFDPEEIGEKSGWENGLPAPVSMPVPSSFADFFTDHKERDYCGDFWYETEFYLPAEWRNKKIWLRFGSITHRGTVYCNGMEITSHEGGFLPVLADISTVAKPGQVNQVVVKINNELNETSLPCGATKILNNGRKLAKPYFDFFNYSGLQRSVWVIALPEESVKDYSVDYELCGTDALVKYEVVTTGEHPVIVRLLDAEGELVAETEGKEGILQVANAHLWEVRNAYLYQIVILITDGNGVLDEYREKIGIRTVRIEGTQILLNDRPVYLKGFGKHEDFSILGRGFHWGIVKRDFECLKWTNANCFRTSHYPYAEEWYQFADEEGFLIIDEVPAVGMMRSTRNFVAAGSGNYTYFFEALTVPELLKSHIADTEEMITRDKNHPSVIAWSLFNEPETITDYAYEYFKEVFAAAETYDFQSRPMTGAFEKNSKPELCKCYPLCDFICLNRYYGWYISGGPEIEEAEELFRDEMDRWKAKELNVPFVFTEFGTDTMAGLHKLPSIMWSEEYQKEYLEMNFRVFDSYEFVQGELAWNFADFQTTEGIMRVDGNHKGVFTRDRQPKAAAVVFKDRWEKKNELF
Briefly: In vitro DCF-G processing assay (UPLC). To be noted: DCF-G as substrate, 400 µM; pH 6.5; 37 °C.

Where [6] appears, read: read-out: Inhibitor 1 (IC50, nM) pH 7.5, pH 7.5, pNPG 900 µM.
The mark [7] stands for this setting: Inhibitor 1 (IC50, nM) pH 6.5, pH 6.5.
The mark [8] stands for this setting: Inhibitor 1 (IC50, nM) pH 7.5, pH 7.5.
The mark [9] stands for this setting: pH 7.5, pNPG 900 µM, read-out: UNC10201652 (IC50, nM) pH 7.5.
[10] abbreviates: read-out: UNC10201652 (IC50, nM) pH 6.5.
Where [11] appears, read: 100 µM, pH 6.5, read-out: inhibition at 100 µM UNC10201652.
Where [12] appears, read: pH 6.5, read-out: UNC10201652 (IC50, nM) pH 6.5.
The mark [13] stands for this setting: pH 7.5, 1 hour end point, read-out: UNC10201652 (IC50, nM) pH 7.5.

As usually defined, the IC50 is the concentration that gives 50% inhibition. In general, inhibition refers to the change of the read-out against control, counted positive when it falls.

The structures appear in SMILES notation. “And” between values parts separate entries of the source, which are not always exact repeats. Equal values may be shown once. Read-outs that look alike come from different tables or passages of the source.

Bacteroides fragilis GUS (BfGUS), sequence (Q5LIC7 whole entry): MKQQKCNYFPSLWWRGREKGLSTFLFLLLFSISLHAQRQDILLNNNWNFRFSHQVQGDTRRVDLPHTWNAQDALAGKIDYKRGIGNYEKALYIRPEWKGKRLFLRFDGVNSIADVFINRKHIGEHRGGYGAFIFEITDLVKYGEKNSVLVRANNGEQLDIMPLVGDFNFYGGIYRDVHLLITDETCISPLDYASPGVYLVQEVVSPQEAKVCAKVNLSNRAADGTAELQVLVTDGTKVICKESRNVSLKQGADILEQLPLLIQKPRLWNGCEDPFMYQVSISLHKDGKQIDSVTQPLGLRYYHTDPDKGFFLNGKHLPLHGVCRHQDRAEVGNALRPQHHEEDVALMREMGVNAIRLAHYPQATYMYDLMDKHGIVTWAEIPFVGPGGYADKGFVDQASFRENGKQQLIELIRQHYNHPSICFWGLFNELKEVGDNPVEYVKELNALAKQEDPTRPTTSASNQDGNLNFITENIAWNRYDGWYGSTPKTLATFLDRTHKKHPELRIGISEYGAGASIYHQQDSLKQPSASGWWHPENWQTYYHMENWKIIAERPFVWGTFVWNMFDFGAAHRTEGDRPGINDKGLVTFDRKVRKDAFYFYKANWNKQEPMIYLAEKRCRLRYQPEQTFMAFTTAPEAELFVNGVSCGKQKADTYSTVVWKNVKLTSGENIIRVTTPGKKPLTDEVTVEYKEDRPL

Consider `CCOc1ccc(NC(=S)N(CCO)Cc2cc3cc(C)cc(C)c3[nH]c2=O)cc1` [Inhibitor 1], for which the IC50 in test [1], in test [1] (setting [6]), in test [2] (setting [7]), in test [2] (setting [8]), in test [3] (setting [7]) and in test [3] (setting [8]) was > 100000 nM in each case. Moreover, the IC50 in test [4] and in test [4] (setting [6]) was > 100000 nM in each case.
Take `O=C(Cc1ccccc1Nc1c(Cl)cccc1Cl)O[C@@H]1O[C@H](C(=O)O)[C@@H](O)[C@H](O)[C@H]1O` [DCF-G, Diclofenac acyl β-D-glucuronide]: in test [5], the “Apparent kcat” value was 24.0 s⁻¹ and 24.0 ± 0.5 s⁻¹.
`C1CCc2c(c(N3CCOCC3)nc3sc4c(N5CCNCC5)nnnc4c23)C1` [UNC10201652]: the half-inhibitory concentration (IC50) is > 100000 nM in test [1] (setting [9]); > 100000 nM in test [1] (setting [10]); > 100000 nM in test [2] (setting [12]); > 25000 nM in test [2] (setting [13]); > 100000 nM in test [3] (setting [12]); > 3000 nM in test [3] (setting [13]). The IC50 in test [4] (setting [9]) and in test [4] (setting [10]) was > 100000 nM each time. The inhibition at 100 µM in test [2] (setting [11]) and in test [3] (setting [11]) was < 80% in each case. Moreover, the “inhibition (in words)” value in test [4] (UNC10201652, text in picture of Fig. 7b) is given as “No Inhibition”.
